These cell lines were tested with O=C(/C=C/c1cccnc1)NCCCCC1CCN(C(=O)c2ccccc2)CC1 [Daporinad] + Cc1cc(Nc2cc(N3CCN(C)CC3)nc(Sc3ccc(NC(=O)C4CC4)cc3)n2)n[nH]1 [Tozasertib] (partner 0.1 µM) (assay: relative viability (nuclei count vs DMSO), 5 days (fraction); higher = more cells survive). Conditions: first compound 0.0005 µM.
Outline: (§1)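 Dosing by pin tool came one day after lung cancer cell lines were seeded in 1536-well plates, using either one drug or a fixed anchor-drug dose plus five library-drug doses (not always all listed) in √10 steps. After 5 days, nuclei were counted on 4× images. Relative viability is treated-well nuclei count divided by vehicle-well nuclei count, and values are medians of duplicate plates.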

| Cell Line | relative viability |
| --- | --- |
| NCI-H522 | 0.599 |
| NCI-H2342 | 0.53 |
| NCI-H838 | 0.25 |
| NCI-H1650 | 0.387 |
| NCI-H1993 | 0.62 |
| NCI-H441 | 0.512 |
| PC-14 | 0.688 |
| LCLC-103H | 0.548 |
| NCI-H596 | 0.879 |
| NCI-H2126 | 0.919 |
| EMC-BAC-2 | 0.321 |
| NCI-H2085 | 0.805 |
| HCC-366 | 0.103 |
| NCI-H1666 | 0.619 |
| NCI-H647 | 0.308 |
| LK-2 | 0.17 |
| NCI-H2087 | 0.262 |
| NCI-H358 | 0.0969 |
| NCI-H2170 | 0.694 |
| H3255 | 0.455 |
| COR-L23 | 0.199 |
| COR-L 105 | 0.38 |
| LOU-NH91 | 0.754 |
| ChaGo-K-1 | 0.261 |
| HCC-44 | 0.881 |
| HCC-78 | 0.417 |
| NCI-H1623 | 0.438 |
| NCI-H1648 | 0.362 |

Same assay, conditions: first compound 0.001581 µM

| Cell Line | relative viability |
| --- | --- |
| NCI-H522 | 0.533 |
| NCI-H2342 | 0.524 |
| NCI-H838 | 0.322 |
| NCI-H1650 | 0.44 |
| NCI-H1993 | 0.576 |
| NCI-H441 | 0.646 |
| PC-14 | 0.633 |
| LCLC-103H | 0.5 |
| NCI-H596 | 0.929 |
| NCI-H2126 | 0.888 |
| EMC-BAC-2 | 0.311 |
| NCI-H2085 | 0.846 |
| HCC-366 | 0.0734 |
| NCI-H1666 | 0.635 |
| NCI-H647 | 0.305 |
| LK-2 | 0.168 |
| NCI-H2087 | 0.229 |
| NCI-H358 | 0.0872 |
| NCI-H2170 | 0.742 |
| H3255 | 0.605 |
| COR-L23 | 0.232 |
| COR-L 105 | 0.282 |
| LOU-NH91 | 0.699 |
| ChaGo-K-1 | 0.225 |
| HCC-44 | 1.03 |
| NCI-H1623 | 0.44 |
| NCI-H1648 | 0.652 |

Same assay, conditions: first compound 0.005 µM

| Cell Line | relative viability |
| --- | --- |
| NCI-H522 | 0.484 |
| NCI-H2342 | 0.51 |
| NCI-H838 | 0.229 |
| NCI-H1650 | 0.461 |
| NCI-H1993 | 0.633 |
| NCI-H441 | 0.718 |
| PC-14 | 0.606 |
| LCLC-103H | 0.514 |
| NCI-H596 | 1.1 |
| NCI-H2126 | 0.875 |
| EMC-BAC-2 | 0.224 |
| NCI-H2085 | 0.977 |
| HCC-366 | 0.124 |
| NCI-H1666 | 0.655 |
| NCI-H647 | 0.285 |
| LK-2 | 0.194 |
| NCI-H2087 | 0.339 |
| NCI-H358 | 0.11 |
| NCI-H2170 | 0.668 |
| H3255 | 0.638 |
| COR-L23 | 0.179 |
| COR-L 105 | 0.357 |
| LOU-NH91 | 0.792 |
| ChaGo-K-1 | 0.216 |
| HCC-44 | 1.16 |
| HCC-78 | 0.357 |
| NCI-H1623 | 0.39 |
| NCI-H1648 | 0.416 |

Same assay, conditions: first compound 0.01581 µM

| Cell Line | relative viability |
| --- | --- |
| NCI-H522 | 0.433 |
| NCI-H2342 | 0.445 |
| NCI-H838 | 0.177 |
| NCI-H1650 | 0.275 |
| NCI-H1993 | 0.656 |
| NCI-H441 | 0.668 |
| PC-14 | 0.709 |
| LCLC-103H | 0.525 |
| NCI-H596 | 0.65 |
| NCI-H2126 | 0.93 |
| EMC-BAC-2 | 0.204 |
| NCI-H2085 | 0.831 |
| HCC-366 | 0.171 |
| NCI-H1666 | 0.701 |
| NCI-H647 | 0.508 |
| LK-2 | 0.169 |
| NCI-H2087 | 0.221 |
| NCI-H358 | 0.0799 |
| NCI-H2170 | 0.849 |
| H3255 | 0.716 |
| COR-L23 | 0.106 |
| COR-L 105 | 0.341 |
| LOU-NH91 | 0.906 |
| ChaGo-K-1 | 0.192 |
| HCC-44 | 1.05 |
| HCC-78 | 0.637 |
| NCI-H1623 | 0.445 |
| NCI-H1648 | 0.6 |

These cell lines were tested with COc1cc(Nc2ncc(F)c(Nc3ccc4c(n3)NC(=O)C(C)(C)O4)n2)cc(OC)c1OC [R406] + O=C(CCCCCCC(=O)Nc1ccccc1)NO [Vorinostat] (partner 1 µM) in the same assay as above. Conditions: first compound 0.08 µM.
Outline: as §1

| Cell Line | relative viability |
| --- | --- |
| NCI-H522 | 0.937 |
| NCI-H2342 | 0.694 |
| NCI-H838 | 0.694 |
| NCI-H1650 | 0.635 |
| NCI-H1993 | 0.892 |
| NCI-H441 | 0.669 |
| PC-14 | 0.71 |
| LCLC-103H | 0.729 |
| NCI-H596 | 0.659 |
| NCI-H2126 | 0.833 |
| EMC-BAC-2 | 0.405 |
| NCI-H2085 | 0.749 |
| HCC-366 | 0.264 |
| NCI-H1666 | 1.02 |
| NCI-H647 | 0.436 |
| LK-2 | 0.205 |
| NCI-H2087 | 0.43 |
| NCI-H358 | 0.766 |
| NCI-H2170 | 0.799 |

Source: the supplement of paper PMC10307832
